Measured values taken from patent US20050209157A1, “Short bioactive peptides and methods for their use” (priority 2001, published 2005).
Like-named read-outs stand apart in the source and are kept apart here. No end group written: not given here.

What was measured:
fungal = test: Presently preferred antifungal peptides, selected from the MIC/MBC data; type: cell-based; settings: X = preferred
Text: The peptide's “length” is the number of amino acid residues in the sequence.

[1] = tested on: Escherichia coli ATCC 25922; test: Antimicrobial assay I, modified protocol (tryptic soy broth), MBC; settings: minimum bactericidal concentration, Table 4
Procedure: (§3) The preparation of all media, stock solutions, and dilutions took place in a laminar flow hood to prevent contamination. Bacterial cells were freshly grown on antibiotic medium 2 agar slants (pH 7.0 at 25° C.). Bacteria were suspended and diluted in antibiotic medium 3 to about 10^4 cfu/ml and used as the inoculum. Sample solutions (100 μl/well) were added to plates according to the plate layout. Inoculum (100 μl/well) was added to achieve a final concentration of 5×10^3 cfu/ml. Negative controls received 100 μl saline and 100 μl growth medium. Positive controls received 100 μl saline and 100 μl inoculum. Bacterial plates were incubated at 37° C. for 24 hours.
(§4) However, the data for Table 4 were obtained with a modified protocol wherein the medium was tryptic soy broth, inocolum strength was approximately 10^4 CFU per ml, and values determined were minimum bactericidal concentrations (MBC) or minimum fungicidal concentrations (MFC).
(§5) MBC or MFC values are in μg/mL. E. coli is Escherichia coli ATCC accession number 25922; P. aerug is Pseudomonas aeruginosa ATCC accession number 27853, S. aur. is Stapholococcus aureus ATCC accession number 25923; Candida is Candida albicans ATCC accession number 10231.

[2] = tested on: Pseudomonas aeruginosa ATCC 27853; test: as above; settings: minimum bactericidal concentration, Table 4
[3] = tested on: Stapholococcus aureus ATCC 25923; test: as above; settings: minimum bactericidal concentration, Table 4
Procedure: as §3, §4, §5

[4] = tested on: Candida albicans ATCC 10231; test: Antimicrobial assay I, modified protocol (tryptic soy broth), MFC; settings: minimum fungicidal concentration, Table 4
in vitro [5] = type: cell-based, human; settings: human, human red blood cells, pH 7, Table 26, valine substitution; read-out: Hemolysis RBC LD50
in vitro [6] = settings: human, WI38 normal lung fibroblast cells, WI-38 LD50, Table 26, valine substitution
[7] = tested on: Pseudomonas aeruginosa ATCC 9027; test: Antimicrobial assay I, MIC by OD measurement; type: cell-based; settings: 37° C. for 24 hours, absorbance 620 nm
[8] = tested on: Staphylococcus aureus ATCC 6538; test: Antimicrobial assay I, MIC by OD measurement; type: cell-based; settings: 37° C. for 24 hours, absorbance 620 nm
[9] = tested on: yeast (Saccharomyces cerevisiae); test: Antimicrobial assay I, yeast assay in RPMI 1640; type: cell-based; settings: RPMI 1640 media
S. aureus (MRSA) = type: cell-based, Staphylococcus aureus; settings: mean of three; 16 to 20 hours at 35° C.
S. epidermidis C621 = type: cell-based, Staphylococcus epidermidis; settings: mean of three; 16 to 20 hours at 35° C.
S. pyogenes M76 = test: Antimicrobial assays II, NCCLS broth microdilution MIC; type: cell-based, Streptococcus pyogenes; settings: mean of three; 16 to 20 hours at 35° C.
S. pyogenes ATCC19615 = test: as above; type: cell-based, Streptococcus pyogenes; settings: mean of three, in µg/mL
S. pneumoniae C718 = test: as above; type: cell-based, Streptococcus pneumoniae; settings: mean of three
S. pneumoniae C719 = test: as above; type: cell-based, Streptococcus pneumoniae; settings: mean of three, in µg/mL
P. acne ATCC 6919 = test: as above; type: cell-based, Propionibacterium acnes; settings: mean of three, in µg/mL
BMKC = test: Anti-cancer assay, MTT, LD50; type: cell-based; settings: BMKC cloned melanoma line, 24 hours with peptide
Text: (§1) Numbers are LD50 values (μg/mL).

H1299 = test: Anti-cancer assay, MTT, LD50; type: cell-based; settings: 24 hours with peptide, lung large cell carcinoma
Text: as §1

HeLaS3 = test: Anti-cancer assay, MTT, LD50; type: cell-based; settings: 24 hours with peptide, cervical carcinoma
Text: as §1

MCF7 = test: Anti-cancer assay, MTT, LD50; type: cell-based; settings: MCF7 breast adenocarcinoma line, MTT, 24 hours with peptide
Text: as §1

PC3 = test: Anti-cancer assay, MTT, LD50; type: cell-based; settings: 24 hours with peptide, prostate adenocarcinoma
Text: as §1

SW480 = test: Anti-cancer assay, MTT, LD50; type: cell-based; settings: SW480 colon adenocarcinoma line, 24 hours with peptide
Text: as §1

[10] = tested on: human red blood cells (RBC); test: in vitro; type: cell-based; settings: hemolytic assay, concentration at 50% hemolysis, 1 hour at 37° C.
P. aeruginosa H374 = type: cell-based, Pseudomonas aeruginosa; settings: for FIC Index: 0.5 or less = synergy
How it was run: (§2)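 Synergy against efflux-mutant strains: two-fold dilutions of nalidixic acid or chloramphenicol tested with peptide held at ¼ of its MIC.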

P. aeruginosa H774 = type: cell-based, Pseudomonas aeruginosa; settings: P. aeruginosa H744; nalidixic acid + peptide at ¼ MIC; 0.5 or less = synergy
How it was run: as §2

P. aeruginosa = type: cell-based, Pseudomonas aeruginosa; settings: P. aeruginosa H744; MIC of nalidixic acid with peptide at ¼ MIC
How it was run: as §2

WI38 = settings: MTT, 24 hours with peptide

FAKLLAKALKKAL-NH2 [compound 102]
Anti-fungal (preferred peptide) (fungal): X (Preferred antifungal peptides can be selected as having MIC or MBC values of less than or equal to about 25 μg/ml) | MBC E. coli A.25922 [1]: 25 µg/mL | MBC P. aerug A.27853 [2]: 30 µg/mL | MBC S. aur A.25923 [3]: 25 µg/mL | MFC Candida A.10231 [4]: 15 µg/mL

FAKLLAKALKKFL-NH2 [compound 118]
Anti-fungal (preferred peptide) (fungal): X (Preferred antifungal peptides can be selected as having MIC or MBC values of less than or equal to about 25 μg/ml) | MBC E. coli A.25922 [1]: 8 µg/mL | MBC P. aerug A.27853 [2]: 25 µg/mL

FAKLLAKALKKL-NH2 [compound 103]
Anti-fungal (preferred peptide) (fungal): X (Preferred antifungal peptides can be selected as having MIC or MBC values of less than or equal to about 25 μg/ml) | MBC E. coli A.25922 [1]: 30 µg/mL | MBC P. aerug A.27853 [2]: 30 µg/mL | MBC S. aur A.25923 [3]: >50 µg/mL | MFC Candida A.10231 [4]: 25 µg/mL

FALALKAKKL-NH2 [compound 182]
Anti-fungal (preferred peptide) (fungal): X (Preferred antifungal peptides can be selected as having MIC or MBC values of less than or equal to about 25 μg/ml)

FALKALKKAL-NH2 [compound 170]
Anti-fungal (preferred peptide) (fungal): X (Preferred antifungal peptides can be selected as having MIC or MBC values of less than or equal to about 25 μg/ml) | MBC E. coli A.25922 [1]: 25 µg/mL | MBC P. aerug A.27853 [2]: >250 µg/mL | MBC S. aur A.25923 [3]: 150 µg/mL | MFC Candida A.10231 [4]: 25 µg/mL

FAKLLAKLAK-NH2 [compound 123]
Anti-fungal (preferred peptide) (fungal): X (Preferred antifungal peptides can be selected as having MIC or MBC values of less than or equal to about 25 μg/ml) | MBC E. coli A.25922 [1]: 40 µg/mL | MBC P. aerug A.27853 [2]: INACT | MBC S. aur A.25923 [3]: INACT | MFC Candida A.10231 [4]: 25 µg/mL

FALALKALKKAL-NH2 [compound 144]
Anti-fungal (preferred peptide) (fungal): X (Preferred antifungal peptides can be selected as having MIC or MBC values of less than or equal to about 25 μg/ml) | MBC E. coli A.25922 [1]: 10 µg/mL | MBC P. aerug A.27853 [2]: 25 µg/mL | MBC S. aur A.25923 [3]: 25 µg/mL | MFC Candida A.10231 [4]: 25 µg/mL

VALALKALKKLLKKLKKLAKKAL-NH2 [compound 510]
HC50 at 1 h (in vitro [5]): 10 µg/mL | Anti-fungal (preferred peptide) (fungal): X (Preferred antifungal peptides can be selected as having MIC or MBC values of less than or equal to about 25 μg/ml) | CC50 at 24 h (in vitro [6]): 77 µg/mL

FAKKLAKKLAKAL-NH2 [compound 74]
Anti-fungal (preferred peptide) (fungal): X (Preferred antifungal peptides can be selected as having MIC or MBC values of less than or equal to about 25 μg/ml) | MBC E. coli A.25922 [1]: >55 µg/mL | MBC P. aerug A.27853 [2]: 50 µg/mL | MBC S. aur A.25923 [3]: >55 µg/mL | MFC Candida A.10231 [4]: >55 µg/mL

FALALKLAKKAL-NH2 [compound 167]
Anti-fungal (preferred peptide) (fungal): X (Preferred antifungal peptides can be selected as having MIC or MBC values of less than or equal to about 25 μg/ml) | MBC E. coli A.25922 [1]: 25 µg/mL | MBC P. aerug A.27853 [2]: >250 µg/mL | MBC S. aur A.25923 [3]: 10 µg/mL | MFC Candida A.10231 [4]: 25 µg/mL

FALKALKKLKKALKKAL-NH2 [compound 153]
Anti-fungal (preferred peptide) (fungal): X (Preferred antifungal peptides can be selected as having MIC or MBC values of less than or equal to about 25 μg/ml) | MBC E. coli A.25922 [1]: 10 µg/mL | MBC P. aerug A.27853 [2]: 25 µg/mL | MBC S. aur A.25923 [3]: 5 µg/mL | MFC Candida A.10231 [4]: 25 µg/mL

CC(C)C[C@H](NC(=O)[C@H](C)NC(=O)[C@H](CCCCN)NC(=O)[C@H](CC(C)C)NC(=O)[C@H](C)NC(=O)[C@H](CC(C)C)NC(=O)[C@H](C)NC(=O)[C@H](CC(C)C)NC(=O)[C@H](CCCCN)NC(=O)[C@H](C)NC(=O)[C@H](CC(C)C)NC(=O)[C@H](CCCCN)NC(=O)[C@H](CCCCN)NC(=O)[C@H](C)NC(=O)[C@H](CC(C)C)NC(=O)[C@H](CCCCN)NC(=O)[C@H](CCCCN)NC(=O)[C@H](CC(C)C)NC(=O)[C@H](CCCCN)NC(=O)[C@H](CCCCN)NC(=O)[C@H](C)NC(=O)[C@H](CC(C)C)NC(=O)[C@H](CCCCN)NC(=O)[C@H](CCCCN)NC(=O)[C@H](C)NC(=O)[C@@H](N)Cc1ccccc1)C(=O)N[C@@H](C)C(=O)N[C@@H](CC(C)C)C(=O)N[C@@H](CCCCN)C(=O)N[C@@H](C)C(=O)O [compound 100]
Anti-fungal (preferred peptide) (fungal): X (Preferred antifungal peptides can be selected as having MIC or MBC values of less than or equal to about 25 μg/ml)

FAKLLALALKKAL-NH2 [compound 97]
Anti-fungal (preferred peptide) (fungal): X (Preferred antifungal peptides can be selected as having MIC or MBC values of less than or equal to about 25 μg/ml) | MBC E. coli A.25922 [1]: 25 µg/mL | MBC P. aerug A.27853 [2]: >50 µg/mL | MBC S. aur A.25923 [3]: 25 µg/mL | MFC Candida A.10231 [4]: 25 µg/mL

FKLAFKLAKKAFL-NH2 [compound 122]
Anti-fungal (preferred peptide) (fungal): X (Preferred antifungal peptides can be selected as having MIC or MBC values of less than or equal to about 25 μg/ml) | MBC E. coli A.25922 [1]: 30 µg/mL | MBC P. aerug A.27853 [2]: 30 µg/mL | MBC S. aur A.25923 [3]: 25 µg/mL | MFC Candida A.10231 [4]: 15 µg/mL

FAKLAKKLL-NH2 [P60]
paerug9027 (MIC) [7]: 100 µg/mL | staph6538 (MIC) [8]: 200 µg/mL | yeast (MIC or MFC) [9]: 200 µg/mL | S. aureus (MRSA) MIC (S. aureus (MRSA)): 32 µg/mL | S. epidermidis C621 MIC (S. epidermidis C621): 4 µg/mL | S. pyogenes M76 MIC (S. pyogenes M76): 8 µg/mL | S. pyogenes MIC (S. pyogenes ATCC19615): 8 | S. pneumoniae MIC (S. pneumoniae C718): 128 µg/mL | S. pneumoniae MIC (S. pneumoniae C719): >128 | P. acne MIC (P. acne ATCC 6919): 4 | LD50 BMKC (BMKC): > (> indicates greater than 1000) | H1299 LD50 (H1299): > (> indicates greater than 1000) | HeLaS3 LD50 (HeLaS3): > (> indicates greater than 1000) | LD50 MCF7 (MCF7): > (> indicates greater than 1000) | PC3 LD50 (PC3): > (> indicates greater than 1000) | LD50 SW480 (SW480): > (> indicates greater than 1000) | LD50 [10]: > (> indicates greater than 1000) | MIC Cm-comb. (P. aeruginosa H374; MIC of chloramphenicol with peptide at ¼ MIC): 4 µg/mL | MIC Nal-comb. (P. aeruginosa H374; MIC of nalidixic acid with peptide at ¼ MIC): 1250 µg/mL | FIC Index (P. aeruginosa H374; chloramphenicol + peptide at ¼ MIC): 0.5 | FIC Index (P. aeruginosa H374; nalidixic acid + peptide at ¼ MIC, FIC=0.25+MIC comb/MIC alone): 0.5 | FIC Index (P. aeruginosa H774): 1.25 | MIC Nal-comb. (P. aeruginosa): 624 µg/mL | WI38 LD50 (WI38; normal fibroblast line): > (> indicates greater than 1000) | LD50 WI38 (WI38; WI38 normal lung fibroblast line): > (> indicates greater than 1000)

FALALKALKKLKKALKKAL-NH2 [compound 27]
Anti-fungal (preferred peptide) (fungal): X (Preferred antifungal peptides can be selected as having MIC or MBC values of less than or equal to about 25 μg/ml) | MBC E. coli A.25922 [1]: 10 µg/mL | MBC P. aerug A.27853 [2]: 8 µg/mL | MBC S. aur A.25923 [3]: 8 µg/mL | MFC Candida A.10231 [4]: >50 µg/mL

KYKKALKKLAKLL-NH2 [compound 146]
Anti-fungal (preferred peptide) (fungal): X (Preferred antifungal peptides can be selected as having MIC or MBC values of less than or equal to about 25 μg/ml) | MBC E. coli A.25922 [1]: 10 µg/mL | MBC P. aerug A.27853 [2]: >250 µg/mL | MBC S. aur A.25923 [3]: 75 µg/mL | MFC Candida A.10231 [4]: 10 µg/mL
